These results are taken from patent US10538532B2, “Hepatitis B antiviral agents” (ENANTA PHARMACEUTICALS, INC., priority 2016, dated 2020).

The structures appear in SMILES notation. Read-outs that look alike come from different tables or passages of the source.

This assay deals with HBV. In words: HepAD38 antiviral assay: reduction of viral product accumulation (virion DNA by qPCR, HBsAg or HBeAg by ELISA). It counts as cell-based, hepatitis B virus. To be noted: HepAD38 cells, five days after compound addition, concentration reducing viral product accumulation by 50% relative to no drug controls, read-out: HepAD38 EC50. The procedure: Methods: HepAD38 cells are maintained as previously reported (Ladner et al, Antimicrob. Agents Chemother. 1997, […], 1715). Briefly, cells are passaged upon attaining confluency in DMEM/F12 media in the presence of 10% FBS, Penn/Strep, 250 μg/mL G418, and 1 ug/ml tetracycline. Novel compounds are screened by first washing cells three times with PBS to remove tetracycline, and plating in 96 well plates at 35,000 cells/well. Compounds dissolved in DMSO are then diluted 1:200 into wells containing cells. Five days after compound addition, material is harvested for analysis. For an extended 8 day analysis, cells are plated and treated as described above, but media and compound are refreshed on d2 and d5 post initial treatment.
On harvest day, virion DNA is obtained by lysing with Sidestep Lysis and Stabilization Buffer and then quantified via quantitative real time PCR. Commercially available ELISA kits are used to quantitate the viral proteins HBsAg (Alpco) or HbeAg (US Biological) by following the manufacturer's recommended protocol after diluting samples to match the linear range of their respective assays. Irrespective of readout, compound concentrations that reduce viral product accumulation in the cell lysates or supernatants by 50% relative to no drug controls (EC50) are reported; EC50 ranges are as follows: A<0.1 μM; B 0.1-0.4 μM; C>0.4 μM.

The mark [1] stands for this setting: Hepatitis B virus, HePAD38, 120 h.

With `CC(C)[C@H](NC(=O)OC(C)(C)C)C(=O)O[C@H]1CC[C@H](S(=O)(=O)c2cc(C(=O)Nc3cc(F)c(F)c(F)c3)ccc2Cl)CC1` [Example 76], under setting [1], the EC50 lay within 0.1 to 0.4 µM.
Still for that read-out and setting: in the case of `CCOC(=O)CS(=O)(=O)c1cc(C(=O)Nc2cc(F)c(F)c(F)c2)ccc1Cl` [Example 77] it was above 0.4 µM; in that of `O=C(Nc1cc(F)c(F)c(F)c1)c1ccc(Cl)c(S[C@@H]2C[C@H](O)C[C@H](O)C2)c1` [Example 78], above 0.4 µM.
Take `O=C(Nc1cc(F)c(F)c(F)c1)c1ccc(Cl)c(S(=O)(=O)[C@@H]2C[C@H](O)C[C@H](O)C2)c1` [Example 79]: the EC50 under setting [1] is above 0.4 µM.
Consider `C=CCC1(S(=O)(=O)c2cc(C(=O)Nc3cc(F)c(F)c(F)c3)ccc2Cl)CCCCC1` [Example 81], for which, under setting [1], the EC50 is above 0.4 µM.
On to `O=C(Nc1cc(F)c(F)c(F)c1)c1ccc(Cl)c(S(=O)(=O)c2ccccc2)c1` [Example 82], for which the concentration giving a half-maximal response (EC50) under setting [1] is above 0.4 µM.
For `O=C(Nc1cc(F)c(F)c(F)c1)c1ccc(Cl)c(S(=O)(=O)C2CC[C@@H](O)[C@@H](O)CC2)c1` (stereo partly drawn) [Example 83], the EC50 under setting [1] was 0.1 to 0.4 µM.
Turning to `O=C(Nc1cc(F)c(F)c(F)c1)c1ccc(Cl)c(S(=O)(=O)C2C[C@@H](O)[C@@H](O)C2)c1` (stereo partly drawn) [Example 85], the EC50 under setting [1] lay within 0.1 to 0.4 µM.
Take `O=C(Nc1cc(F)c(F)c(F)c1)c1ccc(Cl)c(S(=O)(=O)C2CC3O[C@H]3C2)c1` (stereo partly drawn) [Example 86]: the EC50 is above 0.4 µM.
The same measure, in the same setting: in the case of `O=C(Nc1cc(F)c(F)c(F)c1)c1ccc(Cl)c(S(=O)(=O)C2CC3O[C@H]3C2)c1` (stereo partly drawn) [Example 87] it was 0.1 to 0.4 µM.
For `O=C(Nc1cc(F)c(F)c(F)c1)c1ccc(Cl)c(S(=O)(=O)C2(CCCO)CCCCC2)c1` [Example 88], the concentration giving a half-maximal response (EC50) under setting [1] was above 0.4 µM.
As to `O=C(Nc1cc(F)c(F)c(F)c1)c1ccc(Cl)c(S(=O)(=O)C2(CCO)CCCCC2)c1` [Example 89], the EC50 under setting [1] was in the range of 0.1 to 0.4 µM.
For `CC1(C)O[C@@H]2[C@@H](CSc3cc(C(=O)Nc4cc(F)c(F)c(F)c4)ccc3Cl)OC(=O)[C@]2(C)O1` [Example 90], the EC50 under setting [1] was above 0.4 µM.
Same read-out and setting: with `CCOC(=O)C(F)(F)Sc1cc(C(=O)Nc2cc(F)c(F)c(F)c2)ccc1Cl` [Example 91] the figure was above 0.4 µM.
Take `CCOC(=O)C(C)(C)S(=O)(=O)c1cc(C(=O)Nc2cc(F)c(F)c(F)c2)ccc1Cl` [Example 92]: under setting [1], the EC50 was above 0.4 µM.
Turning to `CCOC(=O)C(F)(F)S(=O)(=O)c1cc(C(=O)Nc2cc(F)c(F)c(F)c2)ccc1Cl` [Example 93], under setting [1], the EC50 was above 0.4 µM.
As for `CCOC(=O)C(C)S(=O)(=O)c1cc(C(=O)Nc2cc(F)c(F)c(F)c2)ccc1Cl` (stereo not drawn) [Example 94], the EC50 under setting [1] is above 0.4 µM.
On the same count and under the same terms, in the case of `O=C(Nc1cc(F)c(F)c(F)c1)c1ccc(Cl)c(S(=O)(=O)C2CCN(c3ccccn3)CC2)c1` [Example 95] it was above 0.4 µM.
Regarding `CN1CCC(S(=O)(=O)c2cc(C(=O)Nc3cc(F)c(F)c(F)c3)ccc2Cl)CC1` [Example 96], the EC50 under setting [1] is above 0.4 µM.
Turning to `C[C@]1(O)C(=O)O[C@H](CSc2cc(C(=O)Nc3cc(F)c(F)c(F)c3)ccc2Cl)[C@H]1O` [Example 97], under setting [1], the EC50 was above 0.4 µM.
On to `CC1(C)O[C@@H]2[C@@H](CS(=O)(=O)c3cc(C(=O)Nc4cc(F)c(F)c(F)c4)ccc3Cl)OC(=O)[C@]2(C)O1` [Example 98], for which, under setting [1], the EC50 is above 0.4 µM.
In the case of `C[C@]1(O)C(=O)O[C@H](CS(=O)(=O)c2cc(C(=O)Nc3cc(F)c(F)c(F)c3)ccc2Cl)[C@H]1O` [Example 99], the EC50 under setting [1] was above 0.4 µM.
With `CC1(C)O[C@@H]2[C@@H](CS(=O)(=O)c3cc(C(=O)Nc4cc(F)c(F)c(F)c4)ccc3Cl)OC(=O)[C@@H]2O1` [Example 100], the EC50 under setting [1] was above 0.4 µM.
Regarding `O=C(Nc1cc(F)c(F)c(F)c1)c1ccc(Cl)c(S(=O)(=O)C[C@H]2OC(=O)[C@H](O)[C@@H]2O)c1` [Example 101], the EC50 under setting [1] was above 0.4 µM.
On the same count and under the same terms, in the case of `O=C(Nc1cc(F)c(F)c(F)c1)c1ccc(Cl)c(S(=O)(=O)C[C@@H]2C[C@@H](O)[C@@H](O)C2)c1` [Example 102] it was 0.1 to 0.4 µM; in that of `CCOC(=O)C(Cc1ccncc1)S(=O)(=O)c1cc(C(=O)Nc2cc(F)c(F)c(F)c2)ccc1Cl` (stereo not drawn) [Example 103], above 0.4 µM; in that of `C=C1CCC(S(=O)(=O)c2cc(C(=O)Nc3cc(F)c(F)c(F)c3)ccc2Cl)CC1` [Example 104], 0.1 to 0.4 µM.
With `O=C(Nc1cc(F)c(F)c(F)c1)c1ccc(Cl)c(S(=O)(=O)C[C@H]2C[C@@H](O)C2)c1` [Example 105], under setting [1], the concentration for a half-maximal effect (EC50) lay in the range of 0.1 to 0.4 µM.
For `O=C(Nc1cc(F)c(F)c(F)c1)c1ccc(Cl)c(S(=O)(=O)[C@H]2C3CCC2C[C@H](CO)C3)c1` [Example 106], under setting [1], the EC50 was below 0.1 µM.
For the molecule `CC1(C)O[C@H]2[C@H](CO[C@@H]2CS(=O)(=O)c2cc(C(=O)Nc3cc(F)c(F)c(F)c3)ccc2Cl)O1` [Example 107], the EC50 under setting [1] is above 0.4 µM.
Take `O=C(Nc1cc(F)c(F)c(F)c1)c1ccc(Cl)c(S(=O)(=O)C[C@H]2OC[C@H](O)[C@@H]2O)c1` [Example 108]: the EC50 under setting [1] is above 0.4 µM.
`O=C(Nc1cc(F)c(F)c(F)c1)c1ccc(Cl)c(S(=O)(=O)[C@H]2CC[C@](O)(CO)CC2)c1` [Example 109]: the EC50 under setting [1] was in the range of 0.1 to 0.4 µM.
Same read-out and setting: in the case of `O=C(Nc1cc(F)c(F)c(F)c1)c1ccc(Cl)c(S(=O)(=O)[C@H]2CC[C@@](O)(CO)CC2)c1` [Example 110] it was 0.1 to 0.4 µM; in that of `O=C(Nc1cc(F)c(F)c(F)c1)c1ccc(Cl)c(S(=O)(=O)C[C@H]2CC[C@H](O)CC2)c1` [Example 111], below 0.1 µM; in that of `O=C(Nc1cc(F)c(F)c(F)c1)c1ccc(Cl)c(S(=O)(=O)C[C@H]2CC[C@@H](O)CC2)c1` [Example 112], below 0.1 µM.
In the case of `O=C(Nc1cc(F)c(F)c(F)c1)c1ccc(Cl)c(S(=O)(=O)CC2CCOCC2)c1` [Example 113], under setting [1], the EC50 was 0.1 to 0.4 µM.
Consider `O=C(Nc1cc(F)c(F)c(F)c1)c1ccc(Cl)c(S(=O)(=O)[C@H]2CC[C@@H](CO)CC2)c1` [Example 114], for which the EC50 under setting [1] fell in the range of 0.1 to 0.4 µM.
As to `O=C(Nc1cc(F)c(F)c(F)c1)c1ccc(Cl)c(S(=O)(=O)[C@H]2CC[C@H](CO)CC2)c1` [Example 115], under setting [1], the EC50 was 0.1 to 0.4 µM.
On to `CCOC(=O)C(CC1CCOCC1)S(=O)(=O)c1cc(C(=O)Nc2cc(F)c(F)c(F)c2)ccc1Cl` (stereo not drawn) [Example 116], for which the EC50 under setting [1] is above 0.4 µM.
Take `CC([C@H]1C[C@@H](O)C1)S(=O)(=O)c1cc(C(=O)Nc2cc(F)c(F)c(F)c2)ccc1Cl` (stereo partly drawn) [Example 117]: the half-maximal effective concentration (EC50) under setting [1] was in the range of 0.1 to 0.4 µM.
Turning to `CC(C)([C@H]1C[C@@H](O)C1)S(=O)(=O)c1cc(C(=O)Nc2cc(F)c(F)c(F)c2)ccc1Cl` [Example 118], the EC50 under setting [1] was in the range of 0.1 to 0.4 µM.
Take `CC(C)(C)OC(=O)N1C2CCC1CC(S(=O)(=O)c1cc(C(=O)Nc3cc(F)c(F)c(F)c3)ccc1Cl)C2` (stereo not drawn) [Example 119]: the EC50 was above 0.4 µM.
`O=C(Nc1cc(F)c(F)c(F)c1)c1ccc(Cl)c(S(=O)(=O)[C@H]2C3CC[C@H]2CC(O)C(O)C3)c1` (stereo partly drawn) [Example 120]: the EC50 under setting [1] is below 0.1 µM.
Turning to `CC(C)(c1ccncc1)S(=O)(=O)c1cc(C(=O)Nc2cc(F)c(F)c(F)c2)ccc1Cl` [Example 121], the EC50 under setting [1] is above 0.4 µM.
As to `O=C(Nc1cc(F)c(F)c(F)c1)c1ccc(Cl)c(S(=O)(=O)CCC2CCOCC2)c1` [Example 123], under setting [1], the EC50 lay in the range of 0.1 to 0.4 µM.
For `CC(C)(CO)S(=O)(=O)c1cc(C(=O)Nc2cc(F)c(F)c(F)c2)ccc1Cl` [Example 124], under setting [1], the EC50 is 0.1 to 0.4 µM.
For `O=C(Nc1cc(F)c(F)c(F)c1)c1ccc(Cl)c(S(=O)(=O)C2CCCC(O)CC2)c1` (stereo not drawn) [Example 125], the EC50 under setting [1] was in the range of 0.1 to 0.4 µM.
For `CC1(C)OC[C@@]2(CC3CC[C@@H](C2)[C@H]3S(=O)(=O)c2cc(C(=O)Nc3ccc(F)c(F)c3)ccc2Cl)O1` [Example 126], under setting [1], the EC50 was in the range of 0.1 to 0.4 µM.
For the molecule `O=C(Nc1ccc(F)c(F)c1)c1ccc(Cl)c(S(=O)(=O)[C@H]2C3CC[C@H]2C[C@](O)(CO)C3)c1` [Example 127], the EC50 under setting [1] was below 0.1 µM.
With `CC1(C)OC[C@@]2(CC3CC[C@@H](C2)[C@H]3S(=O)(=O)c2cc(C(=O)Nc3cc(F)c(F)c(F)c3)ccc2Cl)O1` [Example 128], the concentration giving a half-maximal response (EC50) under setting [1] was in the range of 0.1 to 0.4 µM.
On the same count and under the same terms, in the case of `O=C[C@]1(O)CC2CC[C@@H](C1)[C@H]2S(=O)(=O)c1cc(C(=O)Nc2cc(F)c(F)c(F)c2)ccc1Cl` [Example 129] it was below 0.1 µM; in that of `O=C1CC2CC[C@@H](C1)[C@H]2S(=O)(=O)c1cc(C(=O)Nc2cc(F)c(F)c(F)c2)ccc1Cl` [Example 130], below 0.1 µM; in that of `O=C(Nc1cc(F)c(F)c(F)c1)c1ccc(Cl)c(S(=O)(=O)[C@H]2C3CC[C@H]2C[C@](O)(C(=O)O)C3)c1` [Example 131], above 0.4 µM.
`CC(=O)OC[C@]1(O)CC2CC[C@@H](C1)[C@H]2S(=O)(=O)c1cc(C(=O)Nc2cc(F)c(F)c(F)c2)ccc1Cl` [Example 132]: the EC50 under setting [1] is below 0.1 µM.
As for `O=C(Nc1cc(F)c(F)c(F)c1)c1ccc(Cl)c(S(=O)(=O)C2C3CCCC2CC(O)(CO)C3)c1` (stereo not drawn) [Example 133], under setting [1], the EC50 was 0.1 to 0.4 µM.
Still for that read-out and setting: in the case of `O=C(Nc1cc(F)c(F)c(F)c1)c1ccc(Cl)c(S[C@H]2C3CC[C@H]2C[C@](O)(CO)C3)c1` [Example 134] it was 0.1 to 0.4 µM; in that of `CCNC(=O)OC[C@]1(O)CC2CC[C@@H](C1)[C@H]2S(=O)(=O)c1cc(C(=O)Nc2cc(F)c(F)c(F)c2)ccc1Cl` [Example 135], 0.1 to 0.4 µM.
